The values below come from patent US12421193B2, “GPR52 modulators and methods of use” (Neurocrine Biosciences, Inc., priority 2020, dated 2025).

Usually EC50 stands for the concentration that produces a half-maximal response.

The target of the test is T1, recombinant human GPR52 (Homo sapiens, UniProt Q9Y2T5).
T1 construct: expressed in transfected cells
T1 sequence (Q9Y2T5 whole entry): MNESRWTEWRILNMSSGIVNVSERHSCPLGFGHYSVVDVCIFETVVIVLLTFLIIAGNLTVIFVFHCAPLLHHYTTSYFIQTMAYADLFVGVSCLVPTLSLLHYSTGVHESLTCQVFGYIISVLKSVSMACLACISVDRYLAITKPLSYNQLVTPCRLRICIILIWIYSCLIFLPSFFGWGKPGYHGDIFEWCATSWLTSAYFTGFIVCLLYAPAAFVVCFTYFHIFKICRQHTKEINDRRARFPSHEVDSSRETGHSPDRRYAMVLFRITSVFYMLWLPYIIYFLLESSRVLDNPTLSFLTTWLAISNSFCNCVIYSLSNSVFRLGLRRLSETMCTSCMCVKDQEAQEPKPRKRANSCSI
The test can be described thus: TR-FRET cAMP assay (LANCE Ultra cAMP Kit), GPR52 activity. It is filed as cell-based. Particulars: Flp-In-CHO cells stably expressing recombinant human GPR52; cAMP production, normalized to the positive control. The method in brief: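 Flp-In CHO cells stably expressing human GPR52 (2000/well) in stimulation buffer with 0.5 mM IBMX, pH 7.4, were exposed to compound in 10-point duplicate curves for 30 min at room temperature. cAMP was detected by LANCE Ultra TR-FRET, and EC50 was taken from nonlinear fits normalized to the positive control.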
Background: TR-FRET usually uses a lanthanide donor and a delayed reading to cut background.
Consider `Cc1cc(-c2cc(COc3ccc4nn(C)cc4c3)ccn2)ccc1C(N)=O` [Example 72, 4-(4-{[(2-methyl-2H-indazol-5-yl)oxy]methyl}pyridin-2-yl)-2-methyl benzamide], for which the EC50 lay within 101 to 1000 nM.

With `Cc1cc(-c2cc(COc3ccc(F)c(F)c3)ccn2)ccc1C(N)=O` [Example 48, 4-[4-(3,4-difluorophenoxymethyl)pyridin-2-yl]-2-methylbenzamide], the EC50 was less than 25 nM.

Regarding `Cc1cc(-c2ccnc(COc3ccc(C#N)c(F)c3)n2)ccc1C(N)=O` [Example 103, 4-[2-(4-cyano-3-fluorophenoxymethyl)pyrimidin-4-yl]-2-methylbenzamide], the EC50 was in the range of 101 to 1000 nM. With `Cc1cc(-c2ccnc(COc3ccc(C#N)c(F)c3)c2)ccc1C(N)=O` [Example 82, 4-[2-(4-cyano-3-fluorophenoxymethyl)pyridin-4-yl]-2-methylbenzamide], the EC50 was 25 to 100 nM.

With `Cc1cc(-c2cncc(COc3ccc(F)cc3)c2)ccc1C(N)=O` [Example 97, 4-[5-(4-fluorophenoxymethyl)pyridin-3-yl]-2-methylbenzamide], the EC50 was greater than 1000 nM.
